Experimental data as given in ChEMBL document CHEMBL6103628, “Structural Optimization of Covalent Inhibitors for Deubiquitinase ChlaDUB1 of Chlamydia trachomatis as Antibiotic Agents” (J Med Chem, 2025).
Values after ≈ are worked out from the molar mass of the structure shown. Active and inactive are the calls of the source. The calls are words filed in the database; no cut-off is given here.

How the values were obtained:
[1] = target: T1, Deubiquitinase and deneddylase Dub1 (Chlamydia trachomatis serovar L2 (strain ATCC VR-902B / DSM 19102 /434/Bu)) (UniProt B0B9A0); test: Inhibition of recombinant Chlamydia trachomatis DUB1 (130 to 401 residues) using Ub-Rh110Gly as fluorogenic substrate at 100 to 500 uM incubated for 20 to 240 mins by enzymatic analysis relative to control; details: dose 100-500 µM, time 20-240 min
T1 sequence (whole entry): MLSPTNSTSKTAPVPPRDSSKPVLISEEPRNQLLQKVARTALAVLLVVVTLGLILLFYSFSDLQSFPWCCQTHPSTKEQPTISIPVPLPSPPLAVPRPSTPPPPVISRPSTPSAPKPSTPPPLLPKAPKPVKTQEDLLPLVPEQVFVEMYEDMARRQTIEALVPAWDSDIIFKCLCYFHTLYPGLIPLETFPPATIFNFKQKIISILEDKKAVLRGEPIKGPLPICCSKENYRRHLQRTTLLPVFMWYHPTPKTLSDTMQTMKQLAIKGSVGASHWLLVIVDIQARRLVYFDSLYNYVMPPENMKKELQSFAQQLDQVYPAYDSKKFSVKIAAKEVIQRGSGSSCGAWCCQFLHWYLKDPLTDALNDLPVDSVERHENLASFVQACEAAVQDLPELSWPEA

[2] = target: T2, Ubiquitin thioesterase OTUB2 (Homo sapiens) (UniProt Q96DC9); test: Inhibition of human OTUB2 at 35 uM relative to control
T2 sequence (whole entry): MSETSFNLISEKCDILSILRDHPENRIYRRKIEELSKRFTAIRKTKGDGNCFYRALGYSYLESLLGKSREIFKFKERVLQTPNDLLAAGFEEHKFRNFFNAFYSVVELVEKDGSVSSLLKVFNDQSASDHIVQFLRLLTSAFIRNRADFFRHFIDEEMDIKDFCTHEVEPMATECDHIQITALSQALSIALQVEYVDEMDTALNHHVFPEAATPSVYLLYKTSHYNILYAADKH

[3] = target: T3, Ubiquitin carboxyl-terminal hydrolase isozyme L3 (Homo sapiens) (UniProt P15374); test: Inhibition of human UCHL3 at 35 uM relative to control
T3 sequence (whole entry): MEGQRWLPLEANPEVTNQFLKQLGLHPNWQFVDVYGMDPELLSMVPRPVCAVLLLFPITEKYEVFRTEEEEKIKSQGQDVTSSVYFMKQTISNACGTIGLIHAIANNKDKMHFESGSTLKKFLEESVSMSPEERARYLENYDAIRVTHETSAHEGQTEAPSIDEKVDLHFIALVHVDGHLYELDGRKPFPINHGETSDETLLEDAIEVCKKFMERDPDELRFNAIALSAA

[4] = target: Ubiquitin carboxyl-terminal hydrolase isozyme L1 (Homo sapiens) (UniProt P09936); test: Inhibition of human UCHL1 at 35 uM relative to control
[5] = target: T4, Deubiquitinase and deneddylase Dub2 (Chlamydia trachomatis, UniProt O84875); test: Inhibition of Chlamydia trachomatis DUB2 incubated for 60 mins
T4 sequence (O84875 whole entry): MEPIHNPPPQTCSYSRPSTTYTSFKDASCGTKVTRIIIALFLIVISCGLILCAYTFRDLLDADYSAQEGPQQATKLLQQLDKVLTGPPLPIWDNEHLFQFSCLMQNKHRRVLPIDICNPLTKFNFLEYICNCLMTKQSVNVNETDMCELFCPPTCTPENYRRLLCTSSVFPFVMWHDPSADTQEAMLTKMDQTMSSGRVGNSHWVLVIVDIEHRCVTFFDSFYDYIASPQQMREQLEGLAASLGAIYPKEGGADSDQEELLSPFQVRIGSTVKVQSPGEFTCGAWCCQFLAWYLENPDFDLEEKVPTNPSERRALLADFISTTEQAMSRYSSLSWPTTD

[6] = target: T5, Deubiquitinase and deneddylase Dub2 (Chlamydia trachomatis) (UniProt O84875); test: Inhibition of Chlamydia trachomatis DUB2 incubated for 60 mins relative to control
T5 sequence (whole entry): T4 sequence (O84875 whole entry)

Chlamydia trachomatis = test: Anti-chlamydial activity against Chlamydia trachomatis serovar L2 infected in human HEp-2 cells assessed as inhibition of chlamydial inclusion incubated for 16 hrs by Alexa488/DAPI staining based immunofluorescence assay; assay type: functional, organism-based; details: serovar L2, HEp-2, 16 h
HEK293 = test: Cytotoxicity against HEK293 cells assessed as reduction in cell viability upto 64 ug/mL measured after 20 hrs by XTT assay; assay type: toxicity, cell-based; details: human, hek293, 20 h, dose < 64 µg/ml
[7] = Cytotoxicity against HDFa cells assessed as reduction in cell viability at 16 ug/mL measured after 20 hrs by XTT assay; assay type: toxicity, cell-based; details: human, dose 16 µg/ml
Staphylococcus aureus = test: Antimicrobial activity against methicillin- resistant Staphylococcus aureus JE2 upto 256 microg/ml incubated for 20 hrs by resazurin staining based microtiter plate reader analysis; assay type: functional, organism-based; details: dose <= 256.0 µg/ml
[8] = target: T1, Deubiquitinase and deneddylase Dub1 (Chlamydia trachomatis serovar L2 (strain ATCC VR-902B / DSM 19102 /434/Bu)); test: Non-covalent inhibition of recombinant Chlamydia trachomatis DUB1 (130 to 401 residues) using Ub-Rh110Gly as fluorogenic substrate incubated for 10 to 360 mins by enzymatic analysis; details: time 10-360 min

Chain of Ubiquitin carboxyl-terminal hydrolase isozyme L1 (Homo sapiens) (P09936 whole entry, looked up): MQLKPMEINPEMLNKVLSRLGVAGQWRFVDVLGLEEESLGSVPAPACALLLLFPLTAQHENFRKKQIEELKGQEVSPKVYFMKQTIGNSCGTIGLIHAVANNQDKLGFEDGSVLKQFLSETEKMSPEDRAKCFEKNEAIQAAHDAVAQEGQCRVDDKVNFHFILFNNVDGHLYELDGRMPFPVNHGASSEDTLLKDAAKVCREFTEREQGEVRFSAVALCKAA

For `N#Cc1nccc(C(=O)NCc2nn(C(=O)Cc3ccccc3)c3ccccc23)n1`, the inhibition [1] was “Active; Partial Inhibition Observed”, the inhibition [2] was < 25% and the inhibition [3] was < 25%. The inhibition [4] was < 25%, the IC50 [5] was 30 µM and the inhibition [6] was 100%. For the same molecule, the IC50 (Chlamydia trachomatis) was 25.6 µg/mL (≈ 64.6 µM), the Activity (HEK293) was “Non-toxic” and the Activity [7] was “Toxic”. For the same molecule, the Activity (Staphylococcus aureus) was “inactive” and the inhibition [8] was “Active”.
